Measurements reported in ChEMBL document CHEMBL5113472, “Structure-activity relationship studies of [1,2,5]oxadiazolo[3,4-b]pyrazine-containing polymyxin-selective resistance-modifying agents” (Bioorg Med Chem Lett, 2022).
In brackets after ≈: the same amount, converted by molar mass.

Key:
Escherichia coli [1] = experiment: Potentiation of colistin-induced antibacterial activity against Escherichia coli AR0493 harboring mcr-1 plasmid assessed as minimum resensitizing concentration; type: functional
[2] = Selectivity index, ratio of GI50 for cytotoxicity against human HeLa cells to MRC for Potentiation of colistin-induced antibacterial activity against Escherichia coli AR0493 harboring mcr-1 plasmid; type: toxicity, cell-based; conditions: read-out: Selectivity Index
Escherichia coli [3] = experiment: Antibacterial activity against Escherichia coli AR0493 harboring mcr-1 plasmid assessed as inhibition of bacterial growth; type: functional
[4] = Cytotoxicity against human HeLa cells assessed as inhibition of cell growth by cell viability assay; type: toxicity, cell-based
Salmonella typhimurium [5] = experiment: Potentiation of colistin-induced antibacterial activity against Salmonella Typhimurium AR0539 harboring mcr-3 plasmid assessed as colistin MIC at 1 ug/ml; type: functional, Salmonella enterica subsp. enterica serovar Typhimurium; conditions: Salmonella enterica, dose 1 µg/ml
Pseudomonas aeruginosa [6] = experiment: Potentiation of colistin-induced antibacterial activity against Pseudomonas aeruginosa AR0239 assessed as colistin MIC at 1 ug/ml; type: functional; conditions: dose 1 µg/ml
Pseudomonas aeruginosa [7] = experiment: Potentiation of colistin-induced antibacterial activity against Pseudomonas aeruginosa AR0257 assessed as colistin MIC at 1 ug/ml; type: functional; conditions: dose 1 µg/ml
Escherichia coli [8] = experiment: Potentiation of colistin-induced antibacterial activity against Escherichia coli AR0538 harboring mcr-2 plasmid assessed as colistin MIC at 1 ug/ml; type: functional; conditions: dose 1 µg/ml
Salmonella typhimurium [9] = experiment: Potentiation of colistin-induced antibacterial activity against Salmonella Typhimurium AR0635 harboring mcr-4 plasmid assessed as colistin MIC at 1 ug/ml; type: functional, Salmonella enterica subsp. enterica serovar Typhimurium; conditions: Salmonella enterica, dose 1 µg/ml
Klebsiella pneumoniae [10] = experiment: Potentiation of colistin-induced antibacterial activity against Klebsiella pneumoniae AR0497 harboring mcr-1 plasmid assessed as colistin MIC at 1 ug/ml; type: functional; conditions: dose 1 µg/ml
Acinetobacter baumannii [11] = experiment: Potentiation of colistin-induced antibacterial activity against Acinetobacter baumannii AR0310 assessed as colistin MIC at 1 ug/ml; type: functional; conditions: dose 1 µg/ml
Escherichia coli [12] = experiment: Potentiation of colistin-induced antibacterial activity against Escherichia coli AR0493 harboring mcr-1 plasmid assessed as colistin MIC at 1 ug/ml; type: functional; conditions: dose 1 µg/ml
Pseudomonas aeruginosa [13] = experiment: Antibacterial activity against Pseudomonas aeruginosa AR0257 assessed as inhibition of bacterial growth; type: functional, organism-based
Klebsiella pneumoniae [14] = experiment: Antibacterial activity against Klebsiella pneumoniae AR0497 harboring mcr-1 plasmid assessed as inhibition of bacterial growth; type: functional, organism-based
Pseudomonas aeruginosa [15] = experiment: Antibacterial activity against Pseudomonas aeruginosa AR0239 assessed as inhibition of bacterial growth; type: functional, organism-based
Salmonella typhimurium [16] = experiment: Antibacterial activity against Salmonella Typhimurium AR0635 harboring mcr-4 plasmid assessed as inhibition of bacterial growth; type: functional, organism-based; conditions: Salmonella enterica subsp. enterica serovar Typhimurium
Acinetobacter baumannii [17] = experiment: Antibacterial activity against Acinetobacter baumannii AR0310 assessed as inhibition of bacterial growth; type: functional, organism-based
Salmonella typhimurium [18] = experiment: Antibacterial activity against Salmonella Typhimurium AR0539 harboring mcr-3 plasmid assessed as inhibition of bacterial growth; type: functional, organism-based; conditions: Salmonella enterica subsp. enterica serovar Typhimurium
Escherichia coli [19] = experiment: Antibacterial activity against Escherichia coli AR0538 harboring mcr-2 plasmid assessed as inhibition of bacterial growth; type: functional, organism-based

Compound | MRC (Escherichia coli [1]) | selectivity ratio [2] | MIC (Escherichia coli [3]) | GI50 [4] | further results
COc1ccccc1Nc1nc2nonc2nc1Nc1ccccc1OC | >64 µg/mL | – | – | – | –
COc1ccc(Nc2nc3nonc3nc2O)cc1 | >64 µg/mL | – | – | – | –
FC(F)(F)Oc1cccc(Nc2nc3nonc3nc2Nc2cccc(OC(F)(F)F)c2)c1 | 0.25 µg/mL | 17 | > 64 µg/mL | 4.3 µg/mL (≈ 9.1 µM) | –
Fc1ccc(Nc2nc3nonc3nc2Nc2ccc(F)cc2)cc1 | 0.5 µg/mL | 19 | > 64 µg/mL | 9.4 µg/mL (≈ 27.6 µM) | –
FC(F)(F)Oc1cccc(Nc2nc3nonc3nc2Nc2ccccc2)c1 | 1 µg/mL | – | – | – | –
Oc1nc2nonc2nc1Nc1cccc(F)c1 | 64 µg/mL | – | – | – | –
COc1cccc(Nc2nc3nonc3nc2O)c1 | 16 µg/mL | – | – | – | –
Clc1ccc(Nc2nc3nonc3nc2Nc2ccc(Cl)cc2)cc1 | 0.5 µg/mL | 56 | > 64 µg/mL | 28 µg/mL (≈ 75 µM) | MIC (Salmonella typhimurium [5]): 2 µg/mL; MIC (Pseudomonas aeruginosa [6]): 1 µg/mL; MIC (Pseudomonas aeruginosa [7]): 2 µg/mL; MIC (Escherichia coli [8]): 2 µg/mL; MIC (Salmonella typhimurium [9]): 1 µg/mL; MIC (Klebsiella pneumoniae [10]): 1 µg/mL; MIC (Acinetobacter baumannii [11]): 0.25 µg/mL; MIC (Escherichia coli [12]): 1 µg/mL
Oc1nc2nonc2nc1Nc1ccccc1OC(F)(F)F | >64 µg/mL | – | – | – | –
Cc1cccc(Nc2nc3nonc3nc2Nc2cccc(OC(F)(F)F)c2)c1 | 0.5 µg/mL | 24 | > 64 µg/mL | 12 µg/mL (≈ 29.8 µM) | –
Oc1nc2nonc2nc1Nc1ccc(F)cc1 | 32 µg/mL | – | – | – | –
Cc1cccc(Nc2nc3nonc3nc2O)c1 | 8 µg/mL | – | – | – | –
c1ccc(Nc2nc3nonc3nc2Nc2ccccc2)cc1 | 0.5 µg/mL | 8.8 | > 64 µg/mL | 4.4 µg/mL (≈ 14.5 µM) | –
Clc1cccc(Nc2nc3nonc3nc2Nc2cccc(Cl)c2)c1 | – | 44 | > 64 µg/mL | 11 µg/mL (≈ 29.5 µM) | MIC (Salmonella typhimurium [5]): 1 µg/mL; MIC (Pseudomonas aeruginosa [6]): 1 µg/mL; MIC (Pseudomonas aeruginosa [7]): 2 µg/mL; MIC (Escherichia coli [8]): 1 µg/mL; MIC (Salmonella typhimurium [9]): 1 µg/mL; MIC (Klebsiella pneumoniae [10]): 1 µg/mL; MIC (Acinetobacter baumannii [11]): 0.25 µg/mL; MIC (Escherichia coli [12]): 1 µg/mL
COc1cccc(Nc2nc3nonc3nc2Nc2cccc(OC)c2)c1 | 2 µg/mL | – | – | – | –
Clc1ccccc1Nc1nc2nonc2nc1Nc1ccccc1Cl | 8 µg/mL | – | – | – | –
Cc1ccc(Nc2nc3nonc3nc2Nc2ccc(C)cc2)cc1 | 0.5 µg/mL | 22 | > 64 µg/mL | 11 µg/mL (≈ 33.1 µM) | –
Cc1cccc(Nc2nc3nonc3nc2Nc2cccc(C)c2)c1 | 0.5 µg/mL | 30 | > 64 µg/mL | 15 µg/mL (≈ 45.1 µM) | –

Compound | MRC (Escherichia coli [1]) | selectivity ratio [2] | MIC (Escherichia coli [3]) | GI50 [4] | further results
Oc1nc2nonc2nc1Nc1ccc(Cl)cc1 | 32 µg/mL | – | – | – | –
FC(F)(F)Oc1ccc(Nc2nc3nonc3nc2Nc2ccc(OC(F)(F)F)cc2)cc1 | 0.25 µg/mL | 23 | > 64 µg/mL | 5.7 µg/mL (≈ 12.1 µM) | –
Cc1ccc(Nc2nc3nonc3nc2O)cc1 | 64 µg/mL | – | – | – | –
Oc1nc2nonc2nc1Nc1ccccc1F | 64 µg/mL | – | – | – | –
COc1ccccc1Nc1nc2nonc2nc1Nc1cccc(OC(F)(F)F)c1 | >64 µg/mL | – | – | – | –
FC(F)(F)Oc1ccccc1Nc1nc2nonc2nc1Nc1ccccc1OC(F)(F)F | >64 µg/mL | – | – | – | –
Cc1ccccc1Nc1nc2nonc2nc1O | 64 µg/mL | – | – | – | –
COc1ccc(Nc2nc3nonc3nc2Nc2ccc(OC)cc2)cc1 | >64 µg/mL | – | – | – | –
Oc1nc2nonc2nc1Nc1ccc(OC(F)(F)F)cc1 | 16 µg/mL | – | – | – | –
O=c1[nH]c2nonc2nc1Nc1cccc(Cl)c1 | 16 µg/mL | – | – | – | –
COLISTIN | – | – | 8 µg/mL | – | MIC (Pseudomonas aeruginosa [13]): 8 µg/mL; MIC (Klebsiella pneumoniae [14]): 8 µg/mL; MIC (Pseudomonas aeruginosa [15]): 4 µg/mL; MIC (Salmonella typhimurium [16]): 32 µg/mL; MIC (Acinetobacter baumannii [17]): 32 µg/mL; MIC (Salmonella typhimurium [18]): 8 µg/mL; MIC (Escherichia coli [19]): 8 µg/mL
Oc1nc2nonc2nc1Nc1cccc(OC(F)(F)F)c1 | 4 µg/mL | 6 | > 64 µg/mL | 24 µg/mL (≈ 76.6 µM) | –
Cc1ccccc1Nc1nc2nonc2nc1Nc1ccccc1C | 8 µg/mL | – | – | – | –
Fc1cccc(Nc2nc3nonc3nc2Nc2cccc(F)c2)c1 | 0.5 µg/mL | 40 | > 64 µg/mL | 20 µg/mL (≈ 58.8 µM) | –
Oc1nc2nonc2nc1Nc1ccccc1 | >64 µg/mL | – | – | – | –
COc1ccccc1Nc1nc2nonc2nc1O | 4 µg/mL | > 25 | > 64 µg/mL | > 100 µg/mL | –
Oc1nc2nonc2nc1Nc1ccccc1Cl | 16 µg/mL | – | – | – | –
